Experimental findings from patent US20050106563A1 (Genesis Biotech Inc., priority 2003, published 2005) are described below.

Where no end group is shown, it is not given here.

Test [1] concerns anti-SARS-CoV antibody in human sera. It is filed as binding.
The test system of test [2] is anti-SARS-CoV sera IgG. The class given is binding, human.
For test [3], the system named is IgM specific to SARS-COV N1. The class given is binding, human.
The subject of test [4] is chicken anti-avian infectious bronchitis virus (IBV) sera. The class given is binding.
Test [5] has as its system cat anti-feline coronavirus sera. The class given is binding.

As to “(RNPNNNAATV)8K4K2K-βA (also: octameric MAP: 8 copies on K4K2K lysine core with C-terminal βAla) [GA152]”, in test [1], the “Responder (AT>1, positive)/Total samples (R/T)” value was 10/10; the “Responder/Total samples (R/T) value” came to 0; the “share of group 2 regarded as probable SARS patients (17 of 23 cases)” value was 74%. In addition, in test [2], the “detection of SARS-COV antibody (IgG) in patient #51” value is on record as “can be detected” and the “time dependency of antibody binding (time dependent epitopes)” value is listed as “immediate early (days 1-6)”. The “detection of SARS-COV antibody (IgM) in patient #51” value in test [3] was “can be detected”. The “cross reaction with chicken anti-IBV antiserum” value in test [4] is “did not cross react”. In addition, the “response ratio R/T” value in test [5] is listed as 0/8.
